Experimental data: ChEMBL document CHEMBL1201862, “PubChem BioAssay data set” (2004)
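1) Cells in 96-well plates. 2) Compound, 48 h, 5 concentrations. 3) Linear interpolation between surrounding doses. 4) Unreached endpoint = highest concentration. GI50 is the concentration that inhibits growth by half.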 Calls of active or inactive are those of the source. Rule as the data show it: active = GI50 up to about 1.1 µM and inactive = higher.

Legend:
Test in all cases: NCI anticancer screen, dose series, 48 h
OVCAR-4 = test system: OVCAR-4
A498 = test system: A498
HOP-62 = test system: HOP-62
SF-539 = test system: SF-539
UACC-62 = test system: UACC-62
MOLT-4 = test system: MOLT-4
UO-31 = test system: UO-31
HL-60 = test system: HL-60
HCT-116 = test system: HCT-116
IGROV-1 = test system: IGROV-1
NCI-H23 = test system: NCI-H23
NCI-H226 = test system: NCI-H226
CCRF-CEM = test system: CCRF-CEM
M19-MEL = test system: M19-MEL
HT-29 = test system: HT-29
786-0 = test system: 786-0
RPMI-8226 = test system: RPMI-8226
DLD-1 = test system: DLD-1
SF-295 = test system: SF-295
SNB-75 = test system: SNB-75
RXF 393 = test system: RXF 393
M14 = test system: M14
NCI-H460 = test system: NCI-H460
OVCAR-8 = test system: OVCAR-8
HCC 2998 = test system: HCC 2998
EKVX = test system: EKVX
SNB-19 = test system: SNB-19
Malme-3M = test system: Malme-3M
KM12 = test system: KM12
K562 = test system: K562
U-251 = test system: U-251
XF498 = test system: XF498
SK-OV-3 = test system: SK-OV-3
DMS-273 = test system: DMS-273
NCI-H522 = test system: NCI-H522
SN12C = test system: SN12C
LXFL 529 = test system: LXFL 529
SW-620 = test system: SW-620
ACHN = test system: ACHN
SF-268 = test system: SF-268
SR = test system: SR
UACC-257 = test system: UACC-257
DMS-114 = test system: DMS-114
SK-MEL-5 = test system: SK-MEL-5
SK-MEL-2 = test system: SK-MEL-2
HCT-15 = test system: HCT-15
LOX IMVI = test system: LOX IMVI
COLO 205 = test system: COLO 205
A549 = test system: A549
TK-10 = test system: TK-10
SK-MEL-28 = test system: SK-MEL-28
RXF 631 = test system: RXF 631
HOP-18 = test system: HOP-18
OVCAR-3 = test system: OVCAR-3
OVCAR-5 = test system: OVCAR-5
SNB-78 = test system: SNB-78
KM-20L2 = test system: KM-20L2
HOP-92 = test system: HOP-92
CAKI-1 = test system: CAKI-1

Measured: GI50

CN/C=C(\C(=O)c1ccc(OC)c(OC)c1)c1ccc(OC)cc1
inactive: OVCAR-4 24.5 µM | A498 13.3 µM | HOP-62 24.7 µM | SF-539 1.25 µM | UACC-62 16.4 µM | MOLT-4 19.9 µM | UO-31 12.2 µM | HL-60 11.3 µM | HCT-116 4.06 µM | IGROV-1 27.4 µM | NCI-H23 30.3 µM | NCI-H226 11.3 µM | CCRF-CEM 3.85 µM | M19-MEL 17.1 µM | HT-29 16.3 µM | 786-0 11.4 µM | RPMI-8226 3.52 µM | DLD-1 15.6 µM | SF-295 40.1 µM | SNB-75 30.1 µM | RXF 393 14 µM | M14 18.7 µM | NCI-H460 19.2 µM | OVCAR-8 15 µM | HCC 2998 > 10 µM | EKVX 27.4 µM | SNB-19 17.5 µM | Malme-3M > 10 µM | KM12 12.6 µM | K562 6.43 µM | U-251 9.29 µM | XF498 18.5 µM | SK-OV-3 45.9 µM | DMS-273 7.33 µM | NCI-H522 17 µM | SN12C 15.3 µM | LXFL 529 16 µM | SW-620 17.3 µM | ACHN 22 µM | SF-268 24.2 µM | SR 16.3 µM | UACC-257 10.7 µM | DMS-114 18.6 µM | SK-MEL-5 17.4 µM | SK-MEL-2 15.7 µM | LOX IMVI 14.2 µM | COLO 205 17.8 µM | A549 34.6 µM | TK-10 17 µM | SK-MEL-28 19.5 µM | RXF 631 14.3 µM
active: HOP-18 < 0.01 µM
13.1 µM: HCT-15

Cc1ccc2c(c1)-c1c3c(nn1-c1ccccc1)-c1ccccc1SC3O2 (configuration not stated)
inactive: A498 > 100 µM | HOP-62 > 100 µM | SF-539 > 100 µM | MOLT-4 > 100 µM | UO-31 > 100 µM | HL-60 > 100 µM | HCT-116 > 100 µM | IGROV-1 > 100 µM | NCI-H23 > 100 µM | CCRF-CEM > 100 µM | HT-29 > 100 µM | 786-0 > 100 µM | RPMI-8226 63.8 µM | DLD-1 > 100 µM | SF-295 > 100 µM | OVCAR-3 > 100 µM | SNB-75 > 100 µM | RXF 393 > 100 µM | NCI-H460 > 100 µM | OVCAR-8 > 100 µM | HCC 2998 > 100 µM | EKVX > 100 µM | Malme-3M > 100 µM | KM12 > 100 µM | K562 > 100 µM | U-251 > 100 µM | XF498 > 100 µM | SK-OV-3 > 100 µM | OVCAR-5 97.1 µM | SNB-78 > 100 µM | DMS-273 > 100 µM | NCI-H522 > 100 µM | LXFL 529 > 100 µM | SW-620 > 100 µM | ACHN > 100 µM | SF-268 > 100 µM | KM-20L2 > 100 µM | UACC-257 > 100 µM | DMS-114 > 100 µM | SK-MEL-2 > 100 µM | LOX IMVI > 100 µM | HOP-92 > 100 µM | COLO 205 > 100 µM | A549 > 100 µM | TK-10 > 100 µM | SK-MEL-28 > 100 µM | RXF 631 2.65 µM | HOP-18 > 100 µM

CN1CCC(SC2Cc3cc(Cl)ccc3Sc3ccccc32)CC1 (configuration not stated)
inactive: OVCAR-4 14.7 µM | A498 16.1 µM | HOP-62 > 10 µM | SF-539 16.4 µM | UACC-62 3.33 µM | MOLT-4 4.24 µM | UO-31 3.86 µM | HL-60 4.15 µM | HCT-116 10.4 µM | IGROV-1 14.7 µM | NCI-H23 14.1 µM | NCI-H226 15.1 µM | M19-MEL 12.7 µM | HT-29 4.24 µM | 786-0 13 µM | RPMI-8226 7.29 µM | DLD-1 14 µM | SF-295 15.9 µM | OVCAR-3 13.6 µM | SNB-75 8.79 µM | RXF 393 3.66 µM | M14 4 µM | NCI-H460 12.2 µM | OVCAR-8 17.3 µM | HCC 2998 8.93 µM | EKVX 18.5 µM | SNB-19 15.6 µM | CAKI-1 10.7 µM | Malme-3M 14.2 µM | KM12 10.3 µM | K562 5.04 µM | U-251 13.6 µM | XF498 16 µM | SK-OV-3 15.8 µM | OVCAR-5 16.7 µM | DMS-273 12.5 µM | NCI-H522 13.9 µM | SN12C 14.6 µM | LXFL 529 13.1 µM | SW-620 13.6 µM | ACHN 14.6 µM | SF-268 11.8 µM | KM-20L2 5.27 µM | SR 8.18 µM | UACC-257 7.96 µM | SK-MEL-5 13.5 µM | LOX IMVI 11.5 µM | HOP-92 11.7 µM | COLO 205 12.9 µM | A549 15.3 µM | TK-10 13 µM | SK-MEL-28 2.12 µM | RXF 631 13.3 µM | HOP-18 13.5 µM
15.7 µM: HCT-15

C#CCNC(=O)NCCCCC(NC(C)=O)C(=O)NCc1ccccc1 (configuration not stated)
inactive: OVCAR-4 > 100 µM | A498 > 100 µM | HOP-62 > 100 µM | SF-539 > 100 µM | UACC-62 > 100 µM | MOLT-4 > 100 µM | UO-31 > 100 µM | HCT-116 > 100 µM | IGROV-1 > 100 µM | NCI-H23 > 100 µM | NCI-H226 > 100 µM | CCRF-CEM > 100 µM | M19-MEL > 100 µM | HT-29 > 100 µM | 786-0 > 100 µM | RPMI-8226 > 100 µM | DLD-1 > 100 µM | SF-295 > 100 µM | OVCAR-3 > 100 µM | SNB-75 > 100 µM | RXF 393 > 100 µM | M14 > 100 µM | NCI-H460 > 100 µM | OVCAR-8 > 100 µM | HCC 2998 > 100 µM | EKVX > 100 µM | SNB-19 > 100 µM | CAKI-1 > 100 µM | Malme-3M > 100 µM | KM12 > 100 µM | K562 > 100 µM | U-251 > 100 µM | SK-OV-3 > 100 µM | OVCAR-5 > 100 µM | SNB-78 > 100 µM | NCI-H522 > 100 µM | SN12C > 100 µM | LXFL 529 > 100 µM | SW-620 > 100 µM | ACHN > 100 µM | SF-268 > 100 µM | KM-20L2 > 100 µM | SR > 100 µM | UACC-257 > 100 µM | DMS-114 > 100 µM | SK-MEL-5 > 100 µM | LOX IMVI > 100 µM | HOP-92 > 100 µM | COLO 205 > 100 µM | A549 > 100 µM | TK-10 > 100 µM | SK-MEL-28 > 100 µM | RXF 631 > 100 µM | HOP-18 > 100 µM
active: XF498 0.101 µM
> 100 µM: HCT-15

COc1cc(C[S+]2CCCC2)c(SC)cc1C[S+]1CCCC1
> 100 µM: HCT-15
inactive: OVCAR-4 > 100 µM | A498 > 100 µM | HOP-62 > 100 µM | SF-539 > 100 µM | UACC-62 > 100 µM | MOLT-4 > 100 µM | UO-31 > 100 µM | HL-60 > 100 µM | HCT-116 > 100 µM | IGROV-1 > 100 µM | NCI-H23 > 100 µM | NCI-H226 > 100 µM | CCRF-CEM > 100 µM | M19-MEL > 100 µM | HT-29 > 100 µM | 786-0 > 100 µM | RPMI-8226 > 100 µM | DLD-1 > 100 µM | SF-295 > 100 µM | OVCAR-3 > 100 µM | SNB-75 47.4 µM | RXF 393 > 100 µM | M14 > 100 µM | NCI-H460 > 100 µM | OVCAR-8 > 100 µM | HCC 2998 > 100 µM | EKVX > 100 µM | CAKI-1 > 100 µM | Malme-3M > 100 µM | KM12 > 100 µM | K562 > 100 µM | U-251 > 100 µM | XF498 74.5 µM | SK-OV-3 > 100 µM | OVCAR-5 > 100 µM | SNB-78 > 100 µM | NCI-H522 > 100 µM | SN12C > 100 µM | LXFL 529 > 100 µM | SW-620 > 100 µM | ACHN > 100 µM | SF-268 > 100 µM | KM-20L2 > 100 µM | UACC-257 > 100 µM | DMS-114 > 100 µM | SK-MEL-5 > 100 µM | SK-MEL-2 > 100 µM | LOX IMVI > 100 µM | HOP-92 > 100 µM | COLO 205 > 100 µM | A549 > 100 µM | TK-10 > 100 µM | SK-MEL-28 > 100 µM | RXF 631 > 100 µM
